The source made the active and inactive calls. The calls are words filed in the database; no cut-off is given here.

The species named for data set [1] is Mus musculus. The experiment in a line: Antagonism of reserpine-induced hypothermia in mice. The class given is functional.
Data set [2] can be described thus: Lethal dose against mice after peroral administration. The class given is toxicity, organism-based. The note with it: mouse, in vivo, po.
The species entered for data set [3] is Mus musculus. Nature of the data set: Antagonism of reserpine-induced hypothermia in mice; I=inactive at 10 mg/ Kg. The class given is functional, organism-based.
Data set [4] has as its system Mus musculus. Nature of the data set: In vivo inhibition of uptake of nor epinephrine in mouse heart; value ranges from 0.01-0.15. The class given is functional.
Data set [5] is filed under the species Mus musculus. The experiment in a line: Antagonism of reserpine-induced hypothermia in mice value given as 0.01-0.15. The class given is functional.
The nature of data set [6]: Lethal dose against mice after intraperitoneal administration; range = 31-53. It counts as toxicity, organism-based. The following applies: mouse, in vivo, ip.
Data set [7] is described as follows: Lethal dose against mice after peroral administration; RANGE = 50-122. The class given is toxicity, organism-based. The following applies: mouse, in vivo, po.
Data set [8] is filed under the species Rattus norvegicus. The experiment in a line: Inhibition of uptake of 5-HT in rat brain slices. The class given is functional.
Data set [9] is filed under the species Rattus norvegicus. Nature of the data set: Inhibition of uptake of Dopamine in rat brain slices. The class given is functional.
For data set [10], the species on record is Rattus norvegicus. Nature of the data set: Inhibition of uptake of nor epinephrine in rat brain slices. It counts as functional.
The species entered for data set [11] is Mus musculus. The experiment in a line: Antagonism of reserpine-induced hypothermia in mice; Short acting. It counts as functional.
The test system of data set [12] is Mus musculus. The experiment in a line: Antagonism of reserpine-induced hypothermia in mice; I=Inactive at 10 mg/kg. It counts as functional, organism-based. The arrangement: dose 10 mg/kg.
Data set [13] is filed under the species Mus musculus. The experiment in a line: Antagonism of reserpine-induced hypothermia in mice; value given as 0.15-0.6. It counts as functional.
The test system of data set [14] is Mus musculus. Nature of the data set: In vivo inhibition of uptake of nor epinephrine in mouse heart. The class given is functional.
Data set [15] can be described thus: Lethal dose against mice after peroral administration; range = 111-182. The class given is toxicity, organism-based. The following applies: mouse, in vivo, po.
Data set [16] relates to Mus musculus. Nature of the data set: In vivo inhibition of uptake of nor epinephrine in mouse heart; value ranges from 0.01-0.14. The class given is functional.
Data set [17] can be described thus: Lethal dose against mice after intraperitoneal administration; range = 25-28. The note with it: mouse, in vivo, ip. The class given is toxicity, organism-based.
Data set [18] deals with Mus musculus. Nature of the data set: In vivo inhibition of uptake of nor epinephrine in mouse heart; value ranges from 3.1-14.6. It counts as functional.
Data set [19] is filed under the species Mus musculus. The experiment in a line: animal or person.

In turn, `CNC1=NCC(c2ccccc2)CN1` (stereo unspecified) displayed a Min oral dose in [1] of 1 mg/kg.
Molecule `COC(=O)NC1=NCC(c2cccc(Br)c2)CN1` (stereo unspecified) showed a Min oral dose in [1] of 1 mg/kg.
On to `CCOC(=O)NC1=NCC(c2ccccc2)CN1` (stereo unspecified), for which the Min oral dose in [1] turned out to be 0.04 mg/kg. The same molecule came in with an LD50 in data set [2] greater than 1000 mg/kg.
The molecule `COC(=O)NC1=NCC(c2ccc(Cl)cc2Cl)CN1` (stereo unspecified) registered a Min oral dose in [1] of 10 mg/kg.
The same measure, in the same setting: in the case of `COC(=O)NC1=NCC(c2ccc(F)cc2)CN1` (stereo unspecified) it was 0.04 mg/kg.
Turning to `CCCOC(=O)NC1=NC(c2ccccc2)CCN1` (stereo unspecified), in data set [3], the Min oral dose result was “inactive”.
As for `COC(=O)N=C1N(C)CC(c2ccccc2)CN1C` (stereo unspecified), in data set [1], the Min oral dose turned out to be 10 mg/kg.
`NC1=NCC(c2ccccc2)CN1` (stereo unspecified) yielded an ED50 in [4] of 0.038 mg/kg. The same molecule had a Min oral dose in data set [5] of 0.15 mg/kg. For the same molecule, the LD50 in [6] turned out to be 42 mg/kg; in [7], 78 mg/kg. The IC50 in [8] was 1.6 µM; in data set [9] it was 0.03 µM; in data set [10], 0.01 µM.
`COC(=O)NC1=NC(c2ccccc2C(F)(F)F)CCN1` (stereo unspecified) displayed a Min oral dose in data set [1] of 10 mg/kg.
Consider `COC(=O)NC1=NC(c2ccccc2)CCN1` (stereo unspecified), for which the Min oral dose in data set [11] amounted to 2.5 mg/kg.
The molecule `COC(=O)NC1=NC(c2ccc(F)cc2)CCN1` (stereo unspecified) had a Min oral dose in [1] of 1 mg/kg.
`COC(=O)NC1=NCC(c2ccccc2Cl)CN1` (stereo unspecified) registered a Min oral dose in data set [1] of 10 mg/kg.
The same measure, in the same setting: as for `NC1=NC(c2ccccc2)CCN1` (stereo unspecified), the figure is 10 mg/kg; as for `COC(=O)NC1=NC(c2ccccc2)CCN1C` (stereo unspecified), 10 mg/kg; as for `CNC1=NCC(c2ccccc2)CN1C` (stereo unspecified), 10 mg/kg.
The same measure, in the same setting: as for `NC1=NCC(c2cccc(Br)c2)CN1` (stereo unspecified), the figure is 10 mg/kg.
As for `COC(=O)NC1=NC(c2ccc(C)cc2)CCN1` (stereo unspecified), the Min oral dose result in [12] is “inactive”.
In turn, `COC(=O)NC1=NCC(c2c(Cl)cccc2Cl)CN1` (stereo unspecified) displayed a Min oral dose in [13] of 0.6 mg/kg.
Turning to `CN(C)CCC=C1c2ccccc2CCc2ccccc21` [AMITRIPTYLINE], in data set [14], the 50% effect level (ED50) was put at a dose of 4.4 mg/kg. For the same molecule, in [1], the Min oral dose amounted to 0.15 mg/kg. In addition, the figures for the IC50 in data set [8], in data set [9] and in data set [10] were 12 µM, 12 µM and 2.5 µM, respectively.
In [1], `COC(=O)NC1=NCC(c2ccc(C(C)C)cc2)CN1` (stereo unspecified) returned a Min oral dose of 1 mg/kg.
As for `COC(=O)NC1=NC(c2ccc(OC)cc2)CCN1` (stereo unspecified), the Min oral dose in data set [1] came out at 10 mg/kg.
Take `CC(C)OC(=O)NC1=NCC(c2ccccc2)CN1` (stereo unspecified): the Min oral dose in data set [1] was 0.04 mg/kg. The same molecule gave an LD50 in [2] greater than 1000 mg/kg.
`COC(=O)NC1=NCC(c2ccccc2)CN1C` (stereo unspecified) came in with a Min oral dose in data set [13] of 0.15 mg/kg.
`CN1CC(c2ccccc2)CN(C)C1=N` (stereo unspecified) gave a Min oral dose in data set [1] of 10 mg/kg.
Consider `COC(=O)NC1=NCC(c2ccccc2)CN1` (stereo unspecified), for which the results for the LD50 in [15] and in [17] were 142 mg/kg and 27 mg/kg, respectively. This molecule displayed an ED50 in data set [16] of 0.038 mg/kg. Moreover, the Min oral dose in [1] is 0.0006 mg/kg. The IC50 came to 160 µM in data set [8], 24 µM in data set [9] and 4.9 µM in data set [10].
`CN(C)CCCN1c2ccccc2CCc2ccccc21` [IMIPRAMINE] had an ED50 in data set [18] of 6.7 mg/kg. This molecule also showed a Min oral dose in data set [1] of 0.15 mg/kg. Also, the IC50 in data set [8] was found to be 16 µM; in data set [9] it was 12 µM; in data set [10], 4.6 µM.
For the molecule `CNCCCN1c2ccccc2CCc2ccccc21` [DESIPRAMINE], the IC50 in [8] and in data set [9] was 12 µM in each case. Further, in data set [19], it took a dose of 1.4 mg/kg to reach the 50% effect level (ED50).

The LD50 is the dose at which mortality reaches 50%. As a reminder, the ED50 is the midpoint of the dose-response relation. A high value points to weaker potency. As usually defined, the IC50 is the concentration needed to halve the response being measured. Low values mean higher potency, high ones lower potency.
